Test results as given in ChEMBL document CHEMBL5465560, “Selectivity Literature for EUbOPEN Chemogenomic Library” (2024).

Experiments:
[1] = molecular target: Mitogen-activated protein kinase kinase kinase kinase 4 (Homo sapiens, UniProt O95819); assay: Selectivity interaction (Kinase panel (KiNativ target engagement assay in Jurkat cells)) EUB0001635a MAP4K4; format: cell-based; conditions: Selectivity number of off-targets 0.0, Selectivity number of targets 233.0, Source Knowledge https://www.sciencedirect.com/science/article/pii/S2451945619300674?via%3Dihub, at 1 µM
Sequence of Mitogen-activated protein kinase kinase kinase kinase 4 (O95819 2-1239 limits assumed): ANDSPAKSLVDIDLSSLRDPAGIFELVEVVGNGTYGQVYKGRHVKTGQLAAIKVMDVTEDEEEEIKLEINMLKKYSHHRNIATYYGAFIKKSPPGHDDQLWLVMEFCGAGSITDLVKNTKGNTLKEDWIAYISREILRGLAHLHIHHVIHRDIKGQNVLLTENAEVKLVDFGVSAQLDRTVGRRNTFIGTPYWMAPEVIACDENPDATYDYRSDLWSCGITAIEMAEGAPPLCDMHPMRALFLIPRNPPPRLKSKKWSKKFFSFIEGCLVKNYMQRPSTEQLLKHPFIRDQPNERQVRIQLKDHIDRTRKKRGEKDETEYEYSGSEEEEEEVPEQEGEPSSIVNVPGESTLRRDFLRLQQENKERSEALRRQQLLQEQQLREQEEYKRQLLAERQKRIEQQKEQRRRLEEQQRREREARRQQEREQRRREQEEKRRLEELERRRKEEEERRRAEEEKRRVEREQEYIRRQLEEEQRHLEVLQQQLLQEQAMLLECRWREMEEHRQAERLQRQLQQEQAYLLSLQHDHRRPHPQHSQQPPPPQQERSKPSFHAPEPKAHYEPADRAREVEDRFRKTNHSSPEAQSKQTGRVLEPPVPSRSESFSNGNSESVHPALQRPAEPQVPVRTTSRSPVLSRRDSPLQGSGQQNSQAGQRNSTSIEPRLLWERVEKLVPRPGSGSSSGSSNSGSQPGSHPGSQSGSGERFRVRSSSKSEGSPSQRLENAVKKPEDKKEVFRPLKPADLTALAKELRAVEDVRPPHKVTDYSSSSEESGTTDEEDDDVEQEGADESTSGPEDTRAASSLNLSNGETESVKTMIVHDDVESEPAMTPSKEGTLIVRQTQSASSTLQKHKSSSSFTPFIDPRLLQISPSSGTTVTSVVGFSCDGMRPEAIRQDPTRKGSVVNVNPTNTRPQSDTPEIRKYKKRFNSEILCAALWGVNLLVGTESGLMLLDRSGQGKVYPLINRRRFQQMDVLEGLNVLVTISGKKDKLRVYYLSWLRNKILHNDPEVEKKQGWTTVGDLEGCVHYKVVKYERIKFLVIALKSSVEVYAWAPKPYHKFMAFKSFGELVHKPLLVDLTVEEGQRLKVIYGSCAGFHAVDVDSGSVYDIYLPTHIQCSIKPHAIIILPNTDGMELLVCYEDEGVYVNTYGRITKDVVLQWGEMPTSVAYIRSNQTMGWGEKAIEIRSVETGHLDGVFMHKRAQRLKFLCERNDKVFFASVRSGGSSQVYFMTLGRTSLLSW

[2] = molecular target: Serine/threonine-protein kinase PAK 4 (Homo sapiens, UniProt O96013); assay: Selectivity interaction (KinomeScan (DiscoverX)) EUB0000229b PAK4; conditions: at 10 µM
Sequence of Serine/threonine-protein kinase PAK 4 (O96013 whole entry, looked up): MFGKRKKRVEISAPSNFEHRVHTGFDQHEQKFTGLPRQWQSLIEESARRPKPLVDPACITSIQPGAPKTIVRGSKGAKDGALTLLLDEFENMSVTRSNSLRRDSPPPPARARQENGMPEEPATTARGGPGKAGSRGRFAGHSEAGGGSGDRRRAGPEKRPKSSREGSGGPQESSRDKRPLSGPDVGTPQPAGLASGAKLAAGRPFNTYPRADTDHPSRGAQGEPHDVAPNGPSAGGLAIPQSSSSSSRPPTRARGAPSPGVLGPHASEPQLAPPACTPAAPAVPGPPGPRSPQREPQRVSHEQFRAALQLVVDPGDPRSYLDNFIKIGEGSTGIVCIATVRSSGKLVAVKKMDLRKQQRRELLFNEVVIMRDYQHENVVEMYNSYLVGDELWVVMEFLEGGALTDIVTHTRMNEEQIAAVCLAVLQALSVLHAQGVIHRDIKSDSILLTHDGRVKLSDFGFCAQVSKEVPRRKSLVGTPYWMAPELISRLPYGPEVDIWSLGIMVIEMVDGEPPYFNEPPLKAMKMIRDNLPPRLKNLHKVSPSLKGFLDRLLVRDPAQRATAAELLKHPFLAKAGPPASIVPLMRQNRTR

[3] = molecular target: Tyrosine-protein kinase Fes/Fps (Homo sapiens) (UniProt P07332); assay: Selectivity interaction (KinomeScan (DiscoverX)) EUB0000695a FES; conditions: at 100 nM
[4] = molecular target: Ephrin type-A receptor 7 (Homo sapiens) (UniProt Q15375); assay: Selectivity interaction (KinomeScan (DiscoverX)) EUB0001079a EPHA7; conditions: at 1 µM
Sequence of Ephrin type-A receptor 7 (Homo sapiens) (Q15375 28-998 limits assumed): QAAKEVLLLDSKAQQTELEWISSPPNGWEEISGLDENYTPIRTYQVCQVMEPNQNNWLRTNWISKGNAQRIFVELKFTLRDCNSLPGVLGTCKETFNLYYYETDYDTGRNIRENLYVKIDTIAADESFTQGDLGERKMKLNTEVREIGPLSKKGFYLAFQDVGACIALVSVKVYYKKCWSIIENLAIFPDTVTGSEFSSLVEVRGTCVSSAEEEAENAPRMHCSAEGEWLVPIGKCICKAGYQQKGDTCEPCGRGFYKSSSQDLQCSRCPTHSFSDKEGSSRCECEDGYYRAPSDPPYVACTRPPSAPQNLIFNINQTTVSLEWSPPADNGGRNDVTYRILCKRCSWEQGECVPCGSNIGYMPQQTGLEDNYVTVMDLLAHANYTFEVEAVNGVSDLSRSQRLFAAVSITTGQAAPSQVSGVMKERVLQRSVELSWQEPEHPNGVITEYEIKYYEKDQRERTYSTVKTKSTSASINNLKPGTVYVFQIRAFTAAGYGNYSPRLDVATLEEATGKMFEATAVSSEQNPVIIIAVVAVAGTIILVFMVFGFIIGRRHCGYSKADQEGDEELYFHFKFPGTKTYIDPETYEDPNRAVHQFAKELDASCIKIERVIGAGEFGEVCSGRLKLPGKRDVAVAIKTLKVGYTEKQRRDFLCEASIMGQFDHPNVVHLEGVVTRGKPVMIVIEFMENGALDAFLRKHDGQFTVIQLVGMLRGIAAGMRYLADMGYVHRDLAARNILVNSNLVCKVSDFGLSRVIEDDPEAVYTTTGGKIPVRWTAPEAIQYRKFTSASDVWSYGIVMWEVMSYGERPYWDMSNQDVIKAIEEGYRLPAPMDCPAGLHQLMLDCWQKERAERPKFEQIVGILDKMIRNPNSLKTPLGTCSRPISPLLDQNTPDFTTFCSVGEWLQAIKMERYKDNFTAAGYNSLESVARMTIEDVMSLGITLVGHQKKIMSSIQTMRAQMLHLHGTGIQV

[5] = molecular target: Glycogen synthase kinase-3 alpha (Homo sapiens, UniProt P49840); assay: Selectivity interaction (Millipore kinase profiler) EUB0000124b GSK3A; conditions: at 10 µM
Sequence of Glycogen synthase kinase-3 alpha (P49840 2-483 limits assumed): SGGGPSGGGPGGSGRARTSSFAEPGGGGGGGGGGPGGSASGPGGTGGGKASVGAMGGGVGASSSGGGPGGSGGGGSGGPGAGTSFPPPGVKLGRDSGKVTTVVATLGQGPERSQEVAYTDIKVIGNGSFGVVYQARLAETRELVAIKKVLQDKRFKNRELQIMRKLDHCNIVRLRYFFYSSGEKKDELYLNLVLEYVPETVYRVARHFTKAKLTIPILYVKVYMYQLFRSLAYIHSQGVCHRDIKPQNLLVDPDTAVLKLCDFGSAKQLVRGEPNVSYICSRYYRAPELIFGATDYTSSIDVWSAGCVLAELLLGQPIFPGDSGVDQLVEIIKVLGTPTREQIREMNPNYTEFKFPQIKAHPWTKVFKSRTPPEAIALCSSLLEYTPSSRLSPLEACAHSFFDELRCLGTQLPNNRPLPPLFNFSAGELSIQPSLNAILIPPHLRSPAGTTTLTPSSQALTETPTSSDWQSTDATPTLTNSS

[6] = molecular target: Serine/threonine-protein kinase Chk2 (Homo sapiens) (UniProt O96017); assay: Selectivity interaction (ProQinase) EUB0000171b CHEK2
Sequence of Serine/threonine-protein kinase Chk2 (Homo sapiens) (O96017 whole entry): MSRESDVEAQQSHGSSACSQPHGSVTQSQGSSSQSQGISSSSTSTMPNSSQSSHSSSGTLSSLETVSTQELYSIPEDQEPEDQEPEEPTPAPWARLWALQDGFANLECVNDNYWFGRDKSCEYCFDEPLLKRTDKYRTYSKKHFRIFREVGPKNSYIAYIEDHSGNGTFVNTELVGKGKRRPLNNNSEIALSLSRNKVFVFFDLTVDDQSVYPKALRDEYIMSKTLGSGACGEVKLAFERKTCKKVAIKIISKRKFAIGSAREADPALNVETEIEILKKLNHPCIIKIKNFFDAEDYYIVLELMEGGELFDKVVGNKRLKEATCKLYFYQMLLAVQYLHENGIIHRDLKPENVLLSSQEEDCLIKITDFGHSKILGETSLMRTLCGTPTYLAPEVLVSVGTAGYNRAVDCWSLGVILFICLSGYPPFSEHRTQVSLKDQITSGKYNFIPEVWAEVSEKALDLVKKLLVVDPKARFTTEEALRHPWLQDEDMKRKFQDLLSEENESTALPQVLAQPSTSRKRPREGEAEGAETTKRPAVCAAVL

[7] = molecular target: Serine/threonine-protein kinase VRK2 (Homo sapiens) (UniProt Q86Y07); assay: Selectivity interaction (ProQinase) EUB0000171b VRK2
Sequence of Serine/threonine-protein kinase VRK2 (Homo sapiens) (Q86Y07 whole entry): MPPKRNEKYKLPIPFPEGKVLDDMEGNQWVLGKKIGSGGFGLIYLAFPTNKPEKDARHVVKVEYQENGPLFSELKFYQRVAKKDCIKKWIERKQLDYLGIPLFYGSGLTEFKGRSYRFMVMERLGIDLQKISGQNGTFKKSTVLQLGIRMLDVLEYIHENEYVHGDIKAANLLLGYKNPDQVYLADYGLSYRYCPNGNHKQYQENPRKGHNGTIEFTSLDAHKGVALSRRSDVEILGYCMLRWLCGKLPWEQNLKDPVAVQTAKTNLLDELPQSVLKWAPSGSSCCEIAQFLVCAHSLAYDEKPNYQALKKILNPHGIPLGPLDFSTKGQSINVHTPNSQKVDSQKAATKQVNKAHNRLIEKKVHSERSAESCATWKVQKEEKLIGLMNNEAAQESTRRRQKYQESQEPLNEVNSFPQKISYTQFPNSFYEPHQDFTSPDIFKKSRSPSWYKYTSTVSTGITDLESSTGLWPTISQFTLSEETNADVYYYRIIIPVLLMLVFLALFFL

[8] = molecular target: Mitogen-activated protein kinase 10 (Homo sapiens, UniProt P53779); assay: Selectivity interaction (KinomeScan (DiscoverX)) EUB0001619a MAPK10; conditions: at 1 µM
Sequence of Mitogen-activated protein kinase 10 (P53779 whole entry): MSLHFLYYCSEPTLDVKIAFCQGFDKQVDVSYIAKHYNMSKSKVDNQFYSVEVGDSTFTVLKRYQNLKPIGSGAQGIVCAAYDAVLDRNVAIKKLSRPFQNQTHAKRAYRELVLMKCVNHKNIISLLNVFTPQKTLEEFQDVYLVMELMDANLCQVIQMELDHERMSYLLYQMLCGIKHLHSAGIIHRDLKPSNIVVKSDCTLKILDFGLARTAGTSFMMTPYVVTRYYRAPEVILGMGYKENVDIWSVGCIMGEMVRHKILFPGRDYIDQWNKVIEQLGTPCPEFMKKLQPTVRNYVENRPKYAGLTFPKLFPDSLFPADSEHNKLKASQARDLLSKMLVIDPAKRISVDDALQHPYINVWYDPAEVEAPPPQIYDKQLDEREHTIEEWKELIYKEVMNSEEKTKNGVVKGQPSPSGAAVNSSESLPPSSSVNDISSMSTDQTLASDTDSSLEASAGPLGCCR

[9] = molecular target: T1, Diacylglycerol kinase eta (Homo sapiens) (UniProt Q86XP1); assay: Selectivity interaction (ActivX KiNativ screen (kinase selectivity in THP-1 cell lysates)) EUB0000639a DGKH; format: subcellular; conditions: lysate
T1 sequence (whole entry): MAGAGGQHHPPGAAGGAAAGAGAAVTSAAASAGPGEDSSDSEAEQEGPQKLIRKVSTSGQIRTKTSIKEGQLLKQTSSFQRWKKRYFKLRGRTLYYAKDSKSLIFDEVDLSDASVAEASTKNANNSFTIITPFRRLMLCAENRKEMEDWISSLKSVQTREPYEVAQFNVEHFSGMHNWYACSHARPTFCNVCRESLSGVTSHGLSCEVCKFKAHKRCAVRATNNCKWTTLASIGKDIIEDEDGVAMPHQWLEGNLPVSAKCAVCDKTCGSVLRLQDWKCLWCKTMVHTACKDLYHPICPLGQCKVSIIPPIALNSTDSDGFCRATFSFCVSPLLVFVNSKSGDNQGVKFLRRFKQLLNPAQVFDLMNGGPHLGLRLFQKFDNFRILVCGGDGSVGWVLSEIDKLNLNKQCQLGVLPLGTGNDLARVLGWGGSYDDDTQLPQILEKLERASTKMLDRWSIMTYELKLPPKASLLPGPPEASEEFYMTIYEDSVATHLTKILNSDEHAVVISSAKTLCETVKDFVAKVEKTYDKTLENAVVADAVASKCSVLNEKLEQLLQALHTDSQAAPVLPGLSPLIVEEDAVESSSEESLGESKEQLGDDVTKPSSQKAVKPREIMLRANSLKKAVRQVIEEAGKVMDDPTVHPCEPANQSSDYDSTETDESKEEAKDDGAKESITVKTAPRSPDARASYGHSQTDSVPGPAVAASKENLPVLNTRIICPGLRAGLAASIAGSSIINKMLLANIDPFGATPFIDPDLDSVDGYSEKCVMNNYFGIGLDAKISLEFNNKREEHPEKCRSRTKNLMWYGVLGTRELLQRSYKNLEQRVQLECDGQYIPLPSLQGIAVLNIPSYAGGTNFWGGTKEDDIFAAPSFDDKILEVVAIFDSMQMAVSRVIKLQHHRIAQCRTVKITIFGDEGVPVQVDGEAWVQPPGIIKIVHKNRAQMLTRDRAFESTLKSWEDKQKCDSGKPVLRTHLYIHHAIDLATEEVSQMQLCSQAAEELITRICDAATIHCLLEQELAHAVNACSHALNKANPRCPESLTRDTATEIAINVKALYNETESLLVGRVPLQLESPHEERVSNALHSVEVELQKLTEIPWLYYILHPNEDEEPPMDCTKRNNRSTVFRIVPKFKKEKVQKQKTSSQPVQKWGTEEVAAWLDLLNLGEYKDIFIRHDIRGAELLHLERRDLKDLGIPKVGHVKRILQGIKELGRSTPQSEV

[10] = molecular target: T2, Serine/threonine-protein kinase PLK4 (Homo sapiens) (UniProt O00444); assay: Selectivity interaction (KinomeScan (DiscoverX)) EUB0000655a PLK4; conditions: at 10 µM
T2 sequence (whole entry): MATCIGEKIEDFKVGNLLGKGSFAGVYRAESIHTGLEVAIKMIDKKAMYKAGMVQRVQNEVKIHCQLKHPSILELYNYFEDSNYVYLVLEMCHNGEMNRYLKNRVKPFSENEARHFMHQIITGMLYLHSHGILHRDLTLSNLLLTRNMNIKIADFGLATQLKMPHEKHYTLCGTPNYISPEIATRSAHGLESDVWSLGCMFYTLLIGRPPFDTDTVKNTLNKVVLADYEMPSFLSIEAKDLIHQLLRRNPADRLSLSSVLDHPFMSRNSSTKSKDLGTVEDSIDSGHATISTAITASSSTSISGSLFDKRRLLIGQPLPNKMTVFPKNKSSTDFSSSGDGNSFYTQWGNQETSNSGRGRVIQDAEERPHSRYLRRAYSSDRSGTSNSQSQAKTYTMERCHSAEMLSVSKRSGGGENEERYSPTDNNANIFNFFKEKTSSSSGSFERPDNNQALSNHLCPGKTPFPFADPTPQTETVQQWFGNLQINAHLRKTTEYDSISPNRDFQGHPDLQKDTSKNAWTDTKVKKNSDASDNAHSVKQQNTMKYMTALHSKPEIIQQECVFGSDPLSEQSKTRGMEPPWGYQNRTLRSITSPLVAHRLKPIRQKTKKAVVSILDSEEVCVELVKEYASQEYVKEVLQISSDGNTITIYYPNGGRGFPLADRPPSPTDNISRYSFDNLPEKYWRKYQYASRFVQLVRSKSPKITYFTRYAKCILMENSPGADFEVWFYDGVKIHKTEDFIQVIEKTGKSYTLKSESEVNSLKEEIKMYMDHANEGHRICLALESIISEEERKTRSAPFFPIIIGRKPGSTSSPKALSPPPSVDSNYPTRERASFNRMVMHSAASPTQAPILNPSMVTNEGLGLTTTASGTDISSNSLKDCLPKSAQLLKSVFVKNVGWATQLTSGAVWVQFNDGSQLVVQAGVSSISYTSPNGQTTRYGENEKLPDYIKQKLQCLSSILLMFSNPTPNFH

**Q.** `C=CC(=O)Nc1ccc(C(=O)Nc2[nH]nc3c2CN(C(=O)N[C@H](CN(C)C)c2ccccc2)C3(C)C)cc1` was tested. Which % of engagement [1] did it give?
**A.** The % of engagement was -15.4%.

**Q.** For `COc1cc(N(C)c2ccnc3ccc(C(F)(F)F)cc23)cc(OC)c1OC`, which % binding [2] is on record?
**A.** Its % binding is 81%.

**Q.** `Cc1cc(F)c(C(=O)Nc2cccc(-c3nncn3C(C)C)n2)cc1-n1cnc(C2CC2)c1` was tested. Which % of control [3] did it give?
**A.** The % of control was 100%.

**Q.** With `Nc1cnc(N2CCc3cc(S(=O)(=O)Nc4c(F)cc(Cl)cc4F)cc(N4CCCC4=O)c32)nc1` [TP-020n] as the compound, how does the % of control [4] read?
**A.** The % of control was 85%.

**Q.** Which % of control [5] does the source give for `CC(=O)Nc1cccc(-n2c(=O)n(C3CC3)c(=O)c3c(Nc4ccc(I)cc4F)n(C)c(=O)c(C)c32)c1` here?
**A.** The % of control was 99%.

**Q.** What does the source list for `C=CC(=O)Nc1cccc(C(=O)Nc2ccc(Nc3cc(-c4[nH]c(SC)nc4C)ccn3)cc2)c1`?
**A.** % of control ([6]; at 1 µM): 70%; % of control ([6]; at 5 µM): 36%; % of control ([7]; at 1 µM): 97%; % of control ([7]; at 5 µM): 83%

**Q.** With `N#Cc1cccc(-c2c[nH]c3ncnc(N4CCOCC4)c23)c1` as the compound, how does the % of control [8] read?
**A.** The % of control was 100%.

**Q.** How did the % of inhibition ([9]; at 0.01 µM) turn out when `CC[C@@H]1[C@H](F)C(=O)N[C@@H]1COc1nccc2cc(C(N)=O)c(OC)cc12` [ZIMLOVISERTIB] was run?
**A.** The % of inhibition was 12.2%.

**Q.** And the % of inhibition ([9]; at 0.04 µM)?
**A.** The % of inhibition was 0%.

**Q.** What about the % of inhibition ([9]; at 0.2 µM) of the same compound?
**A.** Its % of inhibition is 20%.

**Q.** What about the % of inhibition ([9]; at 1 µM) of the same compound?
**A.** The % of inhibition was 0.8%.

**Q.** And the % of inhibition ([9]; at 5 µM)?
**A.** The % of inhibition was -3.6%.

**Q.** `CN(C)CCOc1ccc(-c2nc(-c3ccncc3)c(-c3ccc4c(c3)CC/C4=N\O)[nH]2)cc1` was tested. Which % of control [10] did it give?
**A.** Its % of control is 83%.
